Results: PubChem BioAssay AID2060500 (Molecular Pharmacology Branch, DTP, NCI, 2025)

Test system: 596521-263-R-J1-PDC complex spheroids, viability % of control
Test: Anticancer human tumor 596521-263-R-J1-PDC patient-derived soft tissue sarcoma cell line growth inhibition [GQUAD]
Settings: for IC50: curve of first compound; for viability, T/C: stronger effect = lower value
Summary of the method: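 Tumor cells were grown as complex spheroids with HUVEC endothelial cells and mesenchymal stem cells as stroma. G-quadruplex stabilizers were combined with targeted agents over half-log dilutions from near the clinical Cmax, or from 10 microM.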

[1] = second compound 0.0316 µM, first compound 0.0316 µM
[2] = second compound 0.0316 µM, first compound 0.1 µM
[3] = second compound 0.0316 µM, first compound 0.316 µM
[4] = second compound 0.0316 µM, first compound 1 µM
[5] = second compound 0.0316 µM, first compound 3.16 µM
[6] = second compound 0.0316 µM, first compound 10 µM
[7] = second compound 0.1 µM, first compound 0.0316 µM
[8] = second compound 0.1 µM, first compound 0.1 µM
[9] = second compound 0.1 µM, first compound 0.316 µM
[10] = second compound 0.1 µM, first compound 1 µM
[11] = second compound 0.1 µM, first compound 3.16 µM
[12] = second compound 0.1 µM, first compound 10 µM
[13] = second compound 0.316 µM, first compound 0.0316 µM
[14] = second compound 0.316 µM, first compound 0.1 µM
[15] = second compound 0.316 µM, first compound 0.316 µM
[16] = second compound 0.316 µM, first compound 1 µM
[17] = second compound 0.316 µM, first compound 3.16 µM
[18] = second compound 0.316 µM, first compound 10 µM
[19] = second compound 1 µM, first compound 0.0316 µM
[20] = second compound 1 µM, first compound 0.1 µM
[21] = second compound 1 µM, first compound 0.316 µM
[22] = second compound 1 µM, first compound 1 µM
[23] = second compound 1 µM, first compound 3.16 µM
[24] = second compound 1 µM, first compound 10 µM
[25] = second compound 3.16 µM, first compound 0.0316 µM
[26] = second compound 3.16 µM, first compound 0.1 µM
[27] = second compound 3.16 µM, first compound 0.316 µM
[28] = second compound 3.16 µM, first compound 1 µM
[29] = second compound 3.16 µM, first compound 3.16 µM
[30] = second compound 3.16 µM, first compound 10 µM
[31] = second compound 10 µM, first compound 0.0316 µM
[32] = second compound 10 µM, first compound 0.1 µM
[33] = second compound 10 µM, first compound 0.316 µM
[34] = second compound 10 µM, first compound 1 µM
[35] = second compound 10 µM, first compound 3.16 µM
[36] = second compound 10 µM, first compound 10 µM
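Note: spheroids exposed to drugs for 7 days before viability reading.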
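Throughout, for viability, T/C: 100% = DMSO vehicle control viability.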

CC1COCCN1c1cc(C2(S(C)(=N)=O)CC2)nc(-c2ccnc3[nH]ccc23)n1 (stereo not drawn) + Cc1[nH]c2ccc(F)cc2c1-c1nc2c3cccnc3c3ncccc3c2[nH]1
IC50 (second compound 0.0316 µM): > 10 µM
IC50 (second compound 0.1 µM): 8.24 µM
IC50 (second compound 0.316 µM): 7.65 µM
IC50 (second compound 1 µM): > 10 µM
IC50 (second compound 3.16 µM): 6.02 µM
IC50 (second compound 10 µM): 4.76 µM
viability, T/C [1]: 94.5%
viability, T/C [2]: 92.9%
viability, T/C [3]: 92.1%
viability, T/C [4]: 79.2%
viability, T/C [5]: 64.5%
viability, T/C [6]: 50.9%
viability, T/C [7]: 104%
viability, T/C [8]: 95.5%
viability, T/C [9]: 90.8%
viability, T/C [10]: 79.6%
viability, T/C [11]: 63.1%
viability, T/C [12]: 47.2%
viability, T/C [13]: 100%
viability, T/C [14]: 111%
viability, T/C [15]: 98.5%
viability, T/C [16]: 84.5%
viability, T/C [17]: 62.6%
viability, T/C [18]: 46.1%
viability, T/C [19]: 94.5%
viability, T/C [20]: 92.8%
viability, T/C [21]: 85.5%
viability, T/C [22]: 86.1%
viability, T/C [23]: 67.9%
viability, T/C [24]: 51.4%
viability, T/C [25]: 80.3%
viability, T/C [26]: 89%
viability, T/C [27]: 87.2%
viability, T/C [28]: 65.6%
viability, T/C [29]: 62.6%
viability, T/C [30]: 42.1%
viability, T/C [31]: 80.5%
viability, T/C [32]: 72.6%
viability, T/C [33]: 81%
viability, T/C [34]: 61.7%
viability, T/C [35]: 55.3%
viability, T/C [36]: 43.9%

Cc1cccc(N(C)C(=O)C2C(O)CCN2c2nc(C)cc(C(F)(F)F)c2C#N)c1 (stereo not drawn) + Cc1[nH]c2ccc(F)cc2c1-c1nc2c3cccnc3c3ncccc3c2[nH]1
IC50 (second compound 0.0316 µM): > 10 µM
IC50 (second compound 0.1 µM): > 10 µM
IC50 (second compound 0.316 µM): > 10 µM
IC50 (second compound 1 µM): > 10 µM
IC50 (second compound 3.16 µM): > 10 µM
IC50 (second compound 10 µM): > 10 µM
viability, T/C [1]: 106%
viability, T/C [2]: 93.3%
viability, T/C [3]: 92.7%
viability, T/C [4]: 101%
viability, T/C [5]: 98.1%
viability, T/C [6]: 91.6%
viability, T/C [7]: 98.7%
viability, T/C [8]: 99.1%
viability, T/C [9]: 112%
viability, T/C [10]: 85.9%
viability, T/C [11]: 104%
viability, T/C [12]: 95.1%
viability, T/C [13]: 102%
viability, T/C [14]: 100%
viability, T/C [15]: 91.4%
viability, T/C [16]: 88.4%
viability, T/C [17]: 110%
viability, T/C [18]: 93.7%
viability, T/C [19]: 91.4%
viability, T/C [20]: 89.4%
viability, T/C [21]: 93.9%
viability, T/C [22]: 99.4%
viability, T/C [23]: 109%
viability, T/C [24]: 91.1%
viability, T/C [25]: 85.8%
viability, T/C [26]: 92.5%
viability, T/C [27]: 83.1%
viability, T/C [28]: 88%
viability, T/C [29]: 93.4%
viability, T/C [30]: 83.1%
viability, T/C [31]: 70.4%
viability, T/C [32]: 73.5%
viability, T/C [33]: 83.8%
viability, T/C [34]: 75%
viability, T/C [35]: 83.7%
viability, T/C [36]: 91.4%

Cn1ncnc1[C@H]1c2n[nH]c(=O)c3cc(F)cc(c23)N[C@@H]1c1ccc(F)cc1 + Cc1[nH]c2ccc(F)cc2c1-c1nc2c3cccnc3c3ncccc3c2[nH]1
IC50 (second compound 0.0316 µM): > 0.316 µM
IC50 (second compound 0.1 µM): > 0.316 µM
IC50 (second compound 0.316 µM): > 0.316 µM
IC50 (second compound 1 µM): > 0.316 µM
IC50 (second compound 3.16 µM): > 0.316 µM
IC50 (second compound 10 µM): > 0.316 µM
viability, T/C (second compound 0.0316 µM, first compound 0.000999 µM): 89.4%
viability, T/C (second compound 0.0316 µM, first compound 0.00316 µM): 93.6%
viability, T/C (second compound 0.0316 µM, first compound 0.00999 µM): 90.2%
viability, T/C [1]: 86.6%
viability, T/C (second compound 0.0316 µM, first compound 0.0999 µM): 95.2%
viability, T/C [3]: 94.7%
viability, T/C (second compound 0.1 µM, first compound 0.000999 µM): 101%
viability, T/C (second compound 0.1 µM, first compound 0.00316 µM): 98.9%
viability, T/C (second compound 0.1 µM, first compound 0.00999 µM): 96.7%
viability, T/C [7]: 110%
viability, T/C (second compound 0.1 µM, first compound 0.0999 µM): 94.1%
viability, T/C [9]: 78.1%
viability, T/C (second compound 0.316 µM, first compound 0.000999 µM): 95.2%
viability, T/C (second compound 0.316 µM, first compound 0.00316 µM): 94.2%
viability, T/C (second compound 0.316 µM, first compound 0.00999 µM): 97.9%
viability, T/C [13]: 89.5%
viability, T/C (second compound 0.316 µM, first compound 0.0999 µM): 80.4%
viability, T/C [15]: 78.4%
viability, T/C (second compound 1 µM, first compound 0.000999 µM): 94.8%
viability, T/C (second compound 1 µM, first compound 0.00316 µM): 90.9%
viability, T/C (second compound 1 µM, first compound 0.00999 µM): 88.6%
viability, T/C [19]: 83.5%
viability, T/C (second compound 1 µM, first compound 0.0999 µM): 85.9%
viability, T/C [21]: 79.5%
viability, T/C (second compound 3.16 µM, first compound 0.000999 µM): 89.3%
viability, T/C (second compound 3.16 µM, first compound 0.00316 µM): 84.5%
viability, T/C (second compound 3.16 µM, first compound 0.00999 µM): 84.7%
viability, T/C [25]: 77.7%
viability, T/C (second compound 3.16 µM, first compound 0.0999 µM): 81.8%
viability, T/C [27]: 72.6%
viability, T/C (second compound 10 µM, first compound 0.000999 µM): 73.8%
viability, T/C (second compound 10 µM, first compound 0.00316 µM): 85.6%
viability, T/C (second compound 10 µM, first compound 0.00999 µM): 86.4%
viability, T/C [31]: 76.5%
viability, T/C (second compound 10 µM, first compound 0.0999 µM): 72.5%
viability, T/C [33]: 74.3%

O=C(c1cc(Cc2n[nH]c(=O)c3ccccc23)ccc1F)N1CCN(C(=O)C2CC2)CC1 + Cc1[nH]c2ccc(F)cc2c1-c1nc2c3cccnc3c3ncccc3c2[nH]1
IC50 (second compound 0.0316 µM): > 10 µM
IC50 (second compound 0.1 µM): > 10 µM
IC50 (second compound 0.316 µM): > 10 µM
IC50 (second compound 1 µM): > 10 µM
IC50 (second compound 3.16 µM): > 10 µM
IC50 (second compound 10 µM): > 10 µM
viability, T/C [1]: 97.8%
viability, T/C [2]: 97.8%
viability, T/C [3]: 98.6%
viability, T/C [4]: 85.8%
viability, T/C [5]: 89.8%
viability, T/C [6]: 69.8%
viability, T/C [7]: 91.6%
viability, T/C [8]: 83.3%
viability, T/C [9]: 88.3%
viability, T/C [10]: 94.7%
viability, T/C [11]: 76.8%
viability, T/C [12]: 66.2%
viability, T/C [13]: 95%
viability, T/C [14]: 105%
viability, T/C [15]: 91.8%
viability, T/C [16]: 104%
viability, T/C [17]: 78.5%
viability, T/C [18]: 66.3%
viability, T/C [19]: 104%
viability, T/C [20]: 87.9%
viability, T/C [21]: 94.7%
viability, T/C [22]: 85.2%
viability, T/C [23]: 91.4%
viability, T/C [24]: 65.5%
viability, T/C [25]: 94%
viability, T/C [26]: 83.3%
viability, T/C [27]: 88.4%
viability, T/C [28]: 80.8%
viability, T/C [29]: 75.4%
viability, T/C [30]: 57.2%
viability, T/C [31]: 77.4%
viability, T/C [32]: 73.7%
viability, T/C [33]: 75.8%
viability, T/C [34]: 66.2%
viability, T/C [35]: 72.6%
viability, T/C [36]: 58.5%
